Measurements reported in patent publication US20110296540A1, “ASSAY FOR SCREENING ANTIDEPRESSANTS” (priority 2008, published 2011).
Where two headings read alike, the source gives them in different places.

Tests used:
[1] = test system: MPP/DG synaptic connection; assay: Field electrophysiological recordings on hippocampal slices (MPP/DG), sham or x-irradiated animals; assay type: in vivo, mice
Protocol: Electrophysiology. Brains were collected from animals after deep anesthesia with halothane and decapitation, and transverse hippocampal slices (400 μm) were prepared using a vibratome. […] Slices were allowed to equilibrate for 2 h before positioning the electrodes and beginning stimulation.
To record from the DG, the medial perforant path (MPP) was stimulated using a World Precision Instruments (Sarasota, Fla.) stimulation isolation unit and a bipolar tungsten electrode. Evoked potentials were recorded in the molecular layer above the upper blade of the DG using a glass capillary microelectrode filled with artificial CSF (tip resistance of 1-3 MΩ). […] Input-output curves were obtained after 10 min of stable recordings. […] After 15 min of stable baseline response to test stimulation (once every 20 s), the ability to elicit LTP was assessed. […] Responses were recorded every 20 for 60 min after LTP induction.

[2] = test system: C57BL/6Ntac mice
Description: The novelty suppressed feeding paradigm (NSF) is a conflict test that elicits competing motivations: the drive to eat and the fear of venturing into the center of brightly lit arena. […] Briefly, the testing apparatus consisted of a plastic box (50×50×20 cm), the floor of which was covered with approximately 2 cm of wooden bedding. Twenty-four hours prior to behavioral testing, all food was removed from the home cage. At the time of testing, a single pellet of food (regular chow) was placed on a white paper platform positioned in the center of the box. An animal was placed in a corner of the box, and a stopwatch was immediately started. The latency to eat (defined as the mouse sitting on its haunches and biting the pellet with the use of forepaws) was timed. Immediately afterwards, the animal was transferred to its home cage, and the amount of food consumed by the mouse in the subsequent 5 min was measured, serving as a control for change in appetite as a possible confounding factor. Each mouse was weighed before food deprivation and before testing to assess the percentage of body weight loss (data not shown).
Mice were anesthetized with ketamine and xylazine (100 mg/ml ketamine; 20 mg/ml xylazine), placed in a stereotaxic frame and exposed to cranial irradiation using a Siemens Stabilopan X-ray system operated at 300 kVp and 20 mA. […] Dosimetry was done using a Capintec Model PR06G electrometer ionization chamber and Kodak Readypack Radiographic XV films. The corrected dose rate was approximately 1.8 Gy per min at a source to skin distance of 30 cm. The procedure lasted 2 min and 47 sec, delivering a total of 5 Gy. Three 5 Gy doses were delivered on days 1, 4 and 8.

[3] = test system: dentate gyrus of the adult mouse hippocampus; assay: BrdU labeling for proliferation and survival study, corticosterone model
Protocol: After anesthesia with ketamine (100 mg/kg), mice were perfused transcardially (cold saline for 2 min, followed by 4% cold paraformaldehyde at 4° C.). […] For DAB staining, sections were mounted on slides and boiled in citric acid (pH 6.0) for 5 min, rinsed with PBS, and treated with 0.01% trypsin in Tris/CaCl2 for 10 min. Brain sections were incubated for 30 min with 2N HCl and blocked with 5% NGS. Sections were then incubated overnight at room temperature with anti-mouse BrdU (1:100). After washing with PBS, sections were incubated for 1 hr with secondary antibody (1:200 biotinylated goat anti-mouse) followed by amplification with an avidinbiotin complex. The staining was visualized with DAB.

CNCCC(Oc1ccc(C(F)(F)F)cc1)c1ccccc1 (stereo not shown) [fluoxetine]
input-output functions in the MPP/DG ([1]; chronic fluoxetine): significantly increased
paired-pulse depression (50 ms interstimulus interval) ([1]; chronic fluoxetine, one-third of maximal response and 60 μA): suppressed
ACSF-LTP ([1]; chronic fluoxetine, sham animals): enhanced
LTP ([1]; chronic fluoxetine, x-irradiated animals): completely blocked
input-output functions in the MPP/DG ([1]; subchronic fluoxetine): significantly increased
ACSF-LTP ([1]; subchronic fluoxetine, both sham and x-irradiated animals): suppression
effects of fluoxetine to reverse the anxiety/depressive-like state in the NSF paradigm ([2]; after hippocampal irradiation, chronic corticosterone): completely abolished
corticosterone-induced change in the latency to feed (NSF) ([2]; chronic fluoxetine 18 or imipramine 40 mg/kg/day in corticosterone-treated mice): reversed
latency to feed (NSF) ([2]; irradiated corticosterone/fluoxetine group): 546.2 s
latency to feed (NSF) ([2]; sham corticosterone/fluoxetine group): 371.3 s
change in cell proliferation induced by corticosterone ([3]; 3 weeks of fluoxetine 18 mg/kg/day): completely reversed
effect of fluoxetine on survival ([3]; in the presence of corticosterone, compared with controls): even more pronounced
hippocampal cell proliferation ([3]; non-corticosterone treated C57BL/6Ntac mice, chronic fluoxetine): did not affect
